# Laboratory results published in patent US7947695B2, “5-membered annelated heterocyclic pyrimidines as kinase inhibitors” (Janssen Pharmaceutica NV, priority 2005, dated 2011).
# Biological target: CDK4/cyclinD1 (Homo sapiens, UniProt P11802)
# Experiment: In vitro filtration assay for CDK4 inhibitory activity (pRb phosphorylation, [33P]-ATP)
# Format: biochemical
# Conditions: GST-pRb substrate, 1 μM unlabeled ATP, 25° C. 45 minutes, read-out: cdk4 filter (pIC50) (converted)
# Description: (§1) Compounds of the present invention were tested in an in vitro filtration assay assessing CDK4 activity by means of its pRb-phosphorylation activity using [^33P]-ATP as phosphor donor. The radioactive phosphorylated pRb is then captured on filtermats and the incorporated [^33P] quantitated using a phosphorage storage screen.
# The CDK4 kinase reaction is performed at 25° C. for 45 minutes in a 96-well microtiterplate. The 25 μl reaction volume contains 50 mM Hepes pH 7.5, 10 mM NaF, 10 mM MgCl2, 1 mM Na3VO4, 1 μM unlabeled ATP, 1 mM DTT, 0.5 μCi AT^33P, 0.76 μg/well GST-pRb, 50 ng CDK4/cyclinD1/well and 0.2% compound in 100% DMSO.
# (§2) The reaction is stopped by adding 5 μl of a 3% phosphoric acid solution. 10 μl of the reaction mixture is then spotted onto a Filtermat P30 filter (Wallac) and washed 3 times for 5 min. in 75 mM phosphoric acid and 1 time for 5 min. in methanol prior to drying and quantification on the Typhoon (Amersham) using a phosphorage storage screen.
# (§3) For each experiment, controls (containing enzyme (complex) and DMSO without compound), a blank incubation (containing DMSO but no enzyme (complex) or compound) and samples (containing enzyme (complex) and compound dissolved in DMSO) were run in parallel. All compounds tested were dissolved and eventually further diluted in DMSO. […] In each test, the blank value was subtracted from both the control and the sample values. The control sample represented maximal enzyme activity. For each sample, the amount of cpm was expressed as a percentage of the mean cpm value of the controls. When appropriate, IC50-values (concentration of the drug, needed to reduce the enzyme activity to 50% of the control) were computed using linear interpolation between the experimental points just above and below the 50% level. Herein the effects of test compounds are expressed as pIC50 (the negative log value of the IC50-value).
# Chain of CDK4/cyclinD1 (P11802 whole entry): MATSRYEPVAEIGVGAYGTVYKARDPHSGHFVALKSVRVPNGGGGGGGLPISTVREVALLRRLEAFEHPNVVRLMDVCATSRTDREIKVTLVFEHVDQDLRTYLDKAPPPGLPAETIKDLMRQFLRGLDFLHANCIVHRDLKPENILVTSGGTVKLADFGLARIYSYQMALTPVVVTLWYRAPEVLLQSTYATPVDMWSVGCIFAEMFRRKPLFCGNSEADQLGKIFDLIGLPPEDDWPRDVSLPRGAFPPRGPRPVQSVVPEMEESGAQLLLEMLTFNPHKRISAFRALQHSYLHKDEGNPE
# Chain of CDK4/cyclinD1 (P24385 whole entry partner): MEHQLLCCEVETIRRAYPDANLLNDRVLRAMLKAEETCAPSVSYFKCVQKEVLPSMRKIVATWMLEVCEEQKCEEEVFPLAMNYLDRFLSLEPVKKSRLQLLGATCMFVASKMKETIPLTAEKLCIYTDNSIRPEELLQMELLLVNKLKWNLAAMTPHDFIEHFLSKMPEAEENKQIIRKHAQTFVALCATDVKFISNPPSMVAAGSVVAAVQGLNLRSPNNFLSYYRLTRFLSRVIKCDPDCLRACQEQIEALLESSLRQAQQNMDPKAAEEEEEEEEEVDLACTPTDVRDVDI
row,IC50,Compound
1,25.1 nM,O=C(c1ccc(Nc2ncc3cnn(C4CCCCC4)c3n2)cc1)N1CCOCC1 [compound 56]
2,501 nM,CC(C)(O)CN1CCN(Cc2ccc(Nc3ncc4cnn(C5CCOCC5)c4n3)cc2)CC1 [compound 53]
3,794 nM,O=C(NC1CCOCC1)c1ccc(Nc2ncc3cnn(C4CCCCC4)c3n2)cc1 [compound 95]
4,1000 nM,CN1CCC(NCc2ccc(N(C(=O)OC(C)(C)C)c3ncc4cnn([C@H]5C[C@@H]6CC[C@H]5C6)c4n3)cc2)CC1 [compound 68]
5,6310 nM,CC(C)(C)OC(=O)N(c1ccc(CNCCN2CCOCC2)cc1)c1ncc2cnn([C@H]3C[C@@H]4CC[C@H]3C4)c2n1 [compound 64]
6,2510 nM,CN1CCN(C(=O)c2ccc(Nc3ncc4[nH]c(=O)n(C5CCCCC5)c4n3)cc2)CC1 [compound 83]
7,100 nM,CN1CCN(C(=O)c2ccc(Nc3ncc4cnn([C@H]5C[C@@H]6CC[C@H]5C6)c4n3)cc2)CC1 [compound 57]
8,5010 nM,c1cc(Nc2ncc3cnn(C4CCOCC4)c3n2)ccc1CN1CCOCC1 [compound 51]

# Second part, the compound before the results:
row,Compound,IC50
1,c1cc(N2CCOCC2)ncc1Nc1ncc2cnn(C3CCCCC3)c2n1 [compound 17],20 nM
2,COCCCN1CCN(Cc2ccc(Nc3ncc4cnn(C5CCCCC5)c4n3)cc2)CC1 [compound 43],63.1 nM
3,CC(C)(C)OC(=O)N(c1ccc(CN2CCOCC2)cc1)c1ncc2cnn([C@H]3C[C@@H]4CC[C@H]3C4)c2n1 [compound 41],3980 nM
4,COCCCC(=O)N1CCN(Cc2ccc(N(C(=O)OC(C)(C)C)c3ncc4cnn(C5CCCCC5)c4n3)cc2)CC1 [compound 44],> 10000 nM
5,c1cc(Nc2ncc3cnn(C4CCCCC4)c3n2)ccc1CN1CCOCC1 [compound 33],631 nM
6,c1cc(Nc2ncc3cnn(C4CCCCC4)c3n2)ncc1N1CCOCC1 [compound 28],1000 nM
7,CN1CCN(c2ccc(Nc3ncc4cnn(C5CCOCC5)c4n3)cc2)CC1 [compound 27],200 nM
8,c1cc(Nc2ncc3cnn(C4CCCCC4)c3n2)ccc1CNCCN1CCOCC1 [Co. No. 4],2.51 nM
9,OCCN1CCN(Cc2ccc(Nc3ncc4cnn(C5CCCCC5)c4n3)cc2)CC1 [Co. No. 37],7.94 nM
10,c1cc(Nc2ncc3cnn(C4CCCCC4)c3n2)ncc1N1CCNCC1 [compound 30],50.1 nM
11,CN1CCN(c2ccc(Nc3ncc4cnn([C@H]5C[C@@H]6CC[C@H]5C6)c4n3)cc2)CC1 [compound 16],31.6 nM

# Biological target: T1, AURORA A (Homo sapiens, UniProt O14965)
# T1 sequence (O14965 1-403): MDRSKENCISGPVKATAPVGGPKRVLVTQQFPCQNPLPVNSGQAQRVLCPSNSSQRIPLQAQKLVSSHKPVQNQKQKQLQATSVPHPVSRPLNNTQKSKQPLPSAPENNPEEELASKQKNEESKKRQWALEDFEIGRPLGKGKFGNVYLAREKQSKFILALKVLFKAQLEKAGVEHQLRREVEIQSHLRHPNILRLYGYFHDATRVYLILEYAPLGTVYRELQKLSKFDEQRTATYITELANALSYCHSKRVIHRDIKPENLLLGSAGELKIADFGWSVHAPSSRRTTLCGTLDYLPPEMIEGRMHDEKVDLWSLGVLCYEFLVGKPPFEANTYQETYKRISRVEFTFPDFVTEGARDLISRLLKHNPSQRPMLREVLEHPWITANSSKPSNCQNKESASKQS
# Experiment: In vitro filtration assay for AURORA A inhibitory activity
# Format: biochemical
# Conditions: Kemptide substrate, 1 μM unlabeled ATP, 25° C. 40 minutes, read-out: Aurora A see C.2 (pIC50) (converted)
# Description: as §1, with “AURORA A” for “CDK4”, “substrate-phosphorylation” for “pRb-phosphorylation”, “substrate” for “pRb”
# The Aurora-A kinase reaction is performed at 25° C. for 40 minutes in a 96-well microtiterplate. The 25 μl reaction volume contains 12 mM MOPS pH 7, 0.4 mM EDTA, 0.002% Brij35, 1% glycerol, 0.02% beta-mercapto-ethanol, 0.2 mg/ml BSA, 1 μM unlabeled ATP, […] [^33P]-ATP, 200 μM Kemptide, 3 ng Aurora A/well and 0.2% compound in 100% DMSO.
# as §2, §3
row,IC50,Compound
1,126 nM,O=C(c1ccc(Nc2ncc3cnn(C4CCCCC4)c3n2)cc1)N1CCOCC1 [compound 56]
2,> 10000 nM,CC(C)(O)CN1CCN(Cc2ccc(Nc3ncc4cnn(C5CCOCC5)c4n3)cc2)CC1 [compound 53]
3,126 nM,O=C(NC1CCOCC1)c1ccc(Nc2ncc3cnn(C4CCCCC4)c3n2)cc1 [compound 95]
4,6310 nM,CN1CCC(NCc2ccc(N(C(=O)OC(C)(C)C)c3ncc4cnn([C@H]5C[C@@H]6CC[C@H]5C6)c4n3)cc2)CC1 [compound 68]
5,> 10000 nM,CC(C)(C)OC(=O)N(c1ccc(CNCCN2CCOCC2)cc1)c1ncc2cnn([C@H]3C[C@@H]4CC[C@H]3C4)c2n1 [compound 64]
6,> 10000 nM,CN1CCN(C(=O)c2ccc(Nc3ncc4[nH]c(=O)n(C5CCCCC5)c4n3)cc2)CC1 [compound 83]
7,100 nM,CN1CCN(C(=O)c2ccc(Nc3ncc4cnn([C@H]5C[C@@H]6CC[C@H]5C6)c4n3)cc2)CC1 [compound 57]
8,1000 nM,c1cc(Nc2ncc3cnn(C4CCOCC4)c3n2)ccc1CN1CCOCC1 [compound 51]

# The next lines start with the compound.
row,Compound,IC50
1,c1cc(N2CCOCC2)ncc1Nc1ncc2cnn(C3CCCCC3)c2n1 [compound 17],794 nM
2,COCCCN1CCN(Cc2ccc(Nc3ncc4cnn(C5CCCCC5)c4n3)cc2)CC1 [compound 43],126 nM
3,CC(C)(C)OC(=O)N(c1ccc(CN2CCOCC2)cc1)c1ncc2cnn([C@H]3C[C@@H]4CC[C@H]3C4)c2n1 [compound 41],3160 nM
4,COCCCC(=O)N1CCN(Cc2ccc(N(C(=O)OC(C)(C)C)c3ncc4cnn(C5CCCCC5)c4n3)cc2)CC1 [compound 44],> 10000 nM
5,c1cc(Nc2ncc3cnn(C4CCCCC4)c3n2)ccc1CN1CCOCC1 [compound 33],15.8 nM
6,c1cc(Nc2ncc3cnn(C4CCCCC4)c3n2)ncc1N1CCOCC1 [compound 28],2510 nM
7,CN1CCN(c2ccc(Nc3ncc4cnn(C5CCOCC5)c4n3)cc2)CC1 [compound 27],501 nM
8,c1cc(Nc2ncc3cnn(C4CCCCC4)c3n2)ccc1CNCCN1CCOCC1 [Co. No. 4],1000 nM
9,OCCN1CCN(Cc2ccc(Nc3ncc4cnn(C5CCCCC5)c4n3)cc2)CC1 [Co. No. 37],200 nM
10,c1cc(Nc2ncc3cnn(C4CCCCC4)c3n2)ncc1N1CCNCC1 [compound 30],> 10000 nM
11,CN1CCN(c2ccc(Nc3ncc4cnn([C@H]5C[C@@H]6CC[C@H]5C6)c4n3)cc2)CC1 [compound 16],398 nM

# Biological target: AURORA B (Homo sapiens, UniProt Q96GD4)
# Experiment: In vitro filtration assay for AURORA B inhibitory activity
# Format: biochemical
# Conditions: peptide (C(LRRWSLG)×4), 1 μM unlabeled ATP, 25° C. 40 minutes, read-out: Aurora B see C.3 (pIC50) (converted)
# Description: as §1, with “AURORA B” for “CDK4”, “substrate-phosphorylation” for “pRb-phosphorylation”, “substrate” for “pRb”
# The Aurora-B kinase reaction is performed at 25° C. for 40 minutes in a 96-well microtiterplate. The 25 μl reaction volume contains 60 mM Hepes pH 7.5, 3 mM MgCl2, 3 mM MnCl2, 3 μM Na3VO4, 50 μg/ml PEG20000, 1 μM unlabeled ATP, 1 mM DTT, 0.2 μCi AT^33P, 0.25 μg/well peptide (C(LRRWSLG)×4),100 ng Aurora-B/well and 0.2% compound in 100% DMSO. The reaction is stopped by adding 5 μl of a 3% phosphoric acid solution. 10 μl of the reaction mixture is then spotted onto a Filtermat P30 filter (Wallac) and washed 3 times for 5 min. in 75 mM phosphoric acid and 1 time for 5 min. in methanol prior to drying and quantification on the Typhoon (Amersham) using a phosphorage storage screen.
# as §3
# Chain of AURORA B (Q96GD4 whole entry): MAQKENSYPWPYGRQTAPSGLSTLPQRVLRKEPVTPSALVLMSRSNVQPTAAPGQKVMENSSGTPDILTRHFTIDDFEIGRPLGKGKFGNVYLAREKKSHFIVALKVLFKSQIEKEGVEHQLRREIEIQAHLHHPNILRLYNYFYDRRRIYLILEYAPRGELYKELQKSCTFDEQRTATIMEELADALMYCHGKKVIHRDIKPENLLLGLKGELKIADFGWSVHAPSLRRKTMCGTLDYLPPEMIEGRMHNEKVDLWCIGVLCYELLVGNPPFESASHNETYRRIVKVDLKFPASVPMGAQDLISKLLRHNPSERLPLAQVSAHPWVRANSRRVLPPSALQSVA
row,IC50,Compound
1,3160 nM,O=C(c1ccc(Nc2ncc3cnn(C4CCCCC4)c3n2)cc1)N1CCOCC1 [compound 56]
2,7940 nM,CC(C)(O)CN1CCN(Cc2ccc(Nc3ncc4cnn(C5CCOCC5)c4n3)cc2)CC1 [compound 53]
3,631 nM,O=C(NC1CCOCC1)c1ccc(Nc2ncc3cnn(C4CCCCC4)c3n2)cc1 [compound 95]
4,7940 nM,CN1CCC(NCc2ccc(N(C(=O)OC(C)(C)C)c3ncc4cnn([C@H]5C[C@@H]6CC[C@H]5C6)c4n3)cc2)CC1 [compound 68]
5,> 10000 nM,CC(C)(C)OC(=O)N(c1ccc(CNCCN2CCOCC2)cc1)c1ncc2cnn([C@H]3C[C@@H]4CC[C@H]3C4)c2n1 [compound 64]
6,> 10000 nM,CN1CCN(C(=O)c2ccc(Nc3ncc4[nH]c(=O)n(C5CCCCC5)c4n3)cc2)CC1 [compound 83]
7,7940 nM,CN1CCN(C(=O)c2ccc(Nc3ncc4cnn([C@H]5C[C@@H]6CC[C@H]5C6)c4n3)cc2)CC1 [compound 57]
8,> 10000 nM,c1cc(Nc2ncc3cnn(C4CCOCC4)c3n2)ccc1CN1CCOCC1 [compound 51]

# Second part, the compound before the results:
row,Compound,IC50
1,c1cc(N2CCOCC2)ncc1Nc1ncc2cnn(C3CCCCC3)c2n1 [compound 17],> 10000 nM
2,COCCCN1CCN(Cc2ccc(Nc3ncc4cnn(C5CCCCC5)c4n3)cc2)CC1 [compound 43],3980 nM
3,CC(C)(C)OC(=O)N(c1ccc(CN2CCOCC2)cc1)c1ncc2cnn([C@H]3C[C@@H]4CC[C@H]3C4)c2n1 [compound 41],3160 nM
4,COCCCC(=O)N1CCN(Cc2ccc(N(C(=O)OC(C)(C)C)c3ncc4cnn(C5CCCCC5)c4n3)cc2)CC1 [compound 44],> 10000 nM
5,c1cc(Nc2ncc3cnn(C4CCCCC4)c3n2)ccc1CN1CCOCC1 [compound 33],7940 nM
6,c1cc(Nc2ncc3cnn(C4CCCCC4)c3n2)ncc1N1CCOCC1 [compound 28],> 10000 nM
7,CN1CCN(c2ccc(Nc3ncc4cnn(C5CCOCC5)c4n3)cc2)CC1 [compound 27],> 10000 nM
8,c1cc(Nc2ncc3cnn(C4CCCCC4)c3n2)ccc1CNCCN1CCOCC1 [Co. No. 4],> 1580 nM
9,OCCN1CCN(Cc2ccc(Nc3ncc4cnn(C5CCCCC5)c4n3)cc2)CC1 [Co. No. 37],398 nM
10,c1cc(Nc2ncc3cnn(C4CCCCC4)c3n2)ncc1N1CCNCC1 [compound 30],> 10000 nM
11,CN1CCN(c2ccc(Nc3ncc4cnn([C@H]5C[C@@H]6CC[C@H]5C6)c4n3)cc2)CC1 [compound 16],> 10000 nM
